The source of these data is publication PMC3149649, “Evidence for a Two-Metal-Ion Mechanism in the Cytidyltransferase KdsB, an Enzyme Involved in Lipopolysaccharide Biosynthesis” (PLoS ONE, 2011).

Assay [1] addresses T1, AA-LCKS (LPS-specific CMP-Kdo synthetase, KdsB) (Aquifex aeolicus, UniProt O66914).
T1 construct: recombinant from plasmid pT7-kdsB in E. coli BL21-CodonPlus(DE3)-RIL; no tag mentioned; monomer 27 kDa, gel filtration 53 kDa, homodimer
As to the kind of experiment: X-ray crystal structure, […] Å. The conditions noted are these: co-crystallised with 1 mM CTP; two Mg2+ (Mg-A, Mg-B) in active site; pH 7.5; 19°C. It is filed as binding.

Assay [2] deals with T1, AA-LCKS (LPS-specific CMP-Kdo synthetase, KdsB). As to the kind of experiment: discontinuous Kdo activation assay, CTP replaced by UTP. The conditions noted are these: co-substrate Kdo; glycine-NaOH pH 9.0 or HEPES-NaOH pH 7.5; 80°C. It counts as biochemical.

T1 sequence (O66914 whole entry): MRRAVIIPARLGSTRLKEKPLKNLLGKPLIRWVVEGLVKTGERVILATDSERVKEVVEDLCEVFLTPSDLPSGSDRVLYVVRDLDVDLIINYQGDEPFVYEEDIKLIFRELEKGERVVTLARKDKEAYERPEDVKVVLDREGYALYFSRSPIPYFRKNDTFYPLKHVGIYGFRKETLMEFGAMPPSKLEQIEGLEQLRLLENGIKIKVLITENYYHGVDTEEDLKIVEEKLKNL

In the case of `Nc1ccn([C@@H]2O[C@H](COP(=O)(O)OP(=O)(O)OP(=O)(O)O)[C@@H](O)[C@H]2O)c(=O)n1` [CTP], in assay [1], the “X-ray crystal structure, 2.10 Å” value is “The CTP substrate is bound to the N-terminal domain in each molecule of AA-LCKS”.

Turning to `O=c1ccn([C@@H]2O[C@H](COP(=O)(O)OP(=O)(O)OP(=O)(O)O)[C@@H](O)[C@H]2O)c(=O)[nH]1` [UTP], in assay [2], the “discontinuous Kdo activation assay, CTP replaced by UTP” value is “AA-LCKS was able to utilize UTP for Kdo activation but not ATP or GTP”.
